Experimental data reported in patent US10322165B2, “TIFA antagonists and their use for treating diseases” (ACADEMIA SINICA, priority 2017, dated 2019).

Columns and labels:
NF-κB = assay: Luciferase reporter assay and western blot for NF-κB activity; format: cell-based; conditions: for TNF-α-dependent NF-κB activation and elevations of NF-κB signaling factors: U937 cells stably expressing the fragment, 10 ng/mL TNF-α for 30 min
Experimental: After 5 repeated freeze-thaw cycles, cell extracts were cleared by centrifugation at 4° C. Cell extracts were quantified using Bradford assay, and equal amounts of soluble proteins were mixed with SDS sample buffer, boiled, separated by SDS-PAGE, and blotted onto PVDF membranes (Millipore). Membranes were then blocked for 1 h with 5% dry milk in PBST (PBS supplemented with 0.1% Tween-20) buffer and incubated for overnight at 4° C. with primary antibody diluted in PBST containing 1% bovine serum albumin (Sigma). After three washes with PBST, membranes were incubated with HRP-conjugated anti-mouse or anti-rabbit IgG. […] All western blot analyses were performed independently at least three times except that of primary PBMCs.
Luciferase-based NF-κB reporter assay was conducted as previously described (20). A total of 6×10^5 293T or 10^6 suspension U937 Cells in one well of 6-well plates with indicated conditions were transiently transfected with 2 μg of pNF-κB-Luc reporter plasmid for 48 h before harvest. Cells were treated with 10 ng/mL TNF-α (R&D Systems) for 30 min and lysed with 1× passive lysis buffer (Promega). 100 μg of cell lysates was dispensed into a well of 96-well plate, followed by addition of 100 μL of luciferase assay buffer LARII (Promega) and 100 μL of Stop & Glo reagent (Promega). The triplicated chemiluminescence were measured by SpectraMax Paradigm Multi-Mode Plate Reader (Molecular Devices) and normalized to corresponding β-actin level from a parallel western blot analysis of cell lysates. Results were represented as relative luminescence units (RLU) from three independent experiments.

[1] = test system: acute lymphoblastic leukemia (ALL) line Jurkat and CML line K562; assay: WST-1 viability assay, proliferation of ALL and CML lines; format: cell-based
Experimental: (§1) To silence specific genes, 6×10^5293T cells or 10^6 suspension cells were transfected with 30 pmol (293T cells) or 50 pmol (suspension cells) of indicated siRNA supplemented with 9 or 15 μL of Lipofectamine RNAiMAX (Invitrogen) in the presence of Opti-MEM (Invitrogen) according to the manufacturer's instruction. Six hours after primary transfection, cells were incubated with the regular medium for 24 h, and the secondary siRNA transfection was performed with the same protocol. Cells or conditional media were collected after 72 h of incubation.
(§2) A total of 10^5 suspension cells under indicated condition were seeded per well in 96-well plates and cell viability was analyzed at the indicated time point post treatment.

[2] = test system: AML cell lines HL-60, KG-1, THP-1, and U937; assay: WST-1 viability assay, growth of AML lines; format: cell-based; conditions: WST-1, time course after TIFA silencing
Experimental: as §1, §2

AML PBMCs = assay: WST-1 viability and chemosensitivity of freshly isolated AML PBMCs; format: cell-based, human; conditions: TIFA silencing
Text: Hela, 293T, and HL-60 cell lines were obtained from Dr. Li-Jung Juan of Academia Sinica (Taipei, Taiwan, 2014), KG-1 cell line was obtained from Prof. Shih-Lan Hsu of Taichung Veterans General Hospital (Taichung, Taiwan, 2015), and the rest of cell lines were obtained from Dr. Shui-Tein Chen of Academia Sinica (Taipei, Taiwan, 2015). All cell lines were expanded and stored in liquid nitrogen when received. Original vials were thawed for these experiments and authenticated simultaneously by STR DNA fingerprinting using the Promega GenePrint® 10 System and analyzed by ABI PRISM 3730 GENETIC ANALYZER and GeneMapper® softeware. All resulting SI R profiles were matched with known ATCC fingerprints (ATCC.org). Maintenance of respective cell lines followed our previous protocols (20,27,28). 293T and HeLa cells were maintained in Dulbecco's modified Eagle's medium (DMEM, Gibco). […] All media were supplemented with 10% decomplemented fetal bovine serum (FBS, Gibco), […] L-glutamine (Gibco), 100 U/mL penicillin (Gibco) and 100 μg/mL streptomycin (Gibco). All cells were incubated in a humidified atmosphere at 37° C. with 5% CO2. To isolate human PBMCs, freshly acquired whole bloods were layered over Ficoll (GE healthcare) as previously described (28). Isolated primary cells were maintained according to a previously described protocol (29) and subjected to experimental analyses within two weeks. […]

U937 cells [3] = assay: WST-1 viability of cytarabine-treated U937 cells; format: cell-based; conditions: 5 μg/mL etanercept, 50 nM bortezomib, or 1 μM ABT-263 together with 10 μM cytarabine
Experimental: as §2

J5 (liver cancer cells) = assay: WST-1 cytotoxicity of anti-cancer treatments with or without TIFA silencing; format: cell-based; conditions: 4th day, Sorafenib 5 μM, Cisplatin 5 μM, Etoposide 10 μM, IR 5Gy
Experimental: (§3) For transient transfection of 293T cells, 6×10^5 cells were transfected with 2 μg of indicated plasmid DNA using Jet-PEI (Polyplus Transfection) for 48 h (pCDNA3.1 vector, HA-tagged TIFA, and pNF-κB-Luc) or 24 h (Flag-tagged Aurora A) according to the manufacturer's instruction. For transient transfection of U937 cells, 10^6 suspension cells were transfected with 3 μg of the pNF-κB-Luc plasmid DNA using Lipofectamine 2000 (Invitrogen) for 48 h according to the manufacturer's instruction. To silence specific genes, 6×10^5293T cells or 10^6 suspension cells were transfected with 30 pmol (293T cells) or 50 pmol (suspension cells) of indicated siRNA supplemented with 9 or 15 μL of Lipofectamine RNAiMAX (Invitrogen) in the presence of Opti-MEM (Invitrogen) according to the manufacturer's instruction. Six hours after primary transfection, cells were incubated with the regular medium for 24 h, and the secondary siRNA transfection was performed with the same protocol. Cells or conditional media were collected after 72 h of incubation.
as §2
(§4) Cytotoxicity of cells at the 4th day was normalized to treatment without TIFA silencing and presented.

[4] = test system: HeLa (cervical cancer cells); assay: as above; conditions: 4th day, Sorafenib 5 μM, Cisplatin 5 μM, Etoposide 10 μM, IR 5Gy
Experimental: as §3, §2, §4

H446 (lung cancer cells) = assay: as above; conditions: 4th day, Sorafenib 5 μM, Cisplatin 5 μM, Etoposide 10 μM, IR 5Gy
Experimental: as §3, §2, §4

Jurkat (leukaemia cells) = assay: as above; conditions: 4th day, Sorafenib 5 μM, Cisplatin 5 μM, Etoposide 10 μM, IR 5Gy
Experimental: as §3, §2, §4

[5] = test system: HepG2 (liver cancer cells); assay: as above; conditions: 4th day, Sorafenib 5 μM, Cisplatin 5 μM, Etoposide 10 μM, IR 5Gy
Experimental: as §3, §2, §4

[6] = test system: MCF-7 (breast cancer cells); assay: as above; format: cell-based; conditions: 4th day, Sorafenib 5 μM, Cisplatin 5 μM, Etoposide 10 μM, IR 5Gy
Experimental: as §3, §2, §4

A549 (lung cancer cells) = assay: as above; conditions: 4th day, Sorafenib 5 μM, Cisplatin 5 μM, Etoposide 10 μM, IR 5Gy
Experimental: as §3, §2, §4

[7] = test system: MDA-MB-231 (breast cancer cells); assay: as above; format: cell-based; conditions: 4th day, Sorafenib 5 μM, Cisplatin 5 μM, Etoposide 10 μM, IR 5Gy
Experimental: as §3, §2, §4

[8] = test system: AML lines (HL-60, KG-1, THP-1, U937); assay: WST-1 based survival test, IC50 of chemo drugs in AML lines; format: cell-based; conditions: all four tested AML lines; siTIFA vs control siRNA
THP-1 (leukaemia cells) = assay: WST-1 cytotoxicity of anti-cancer treatments with or without TIFA silencing; conditions: 4th day, Sorafenib 5 μM, Cisplatin 5 μM, Etoposide 10 μM, IR 5Gy
Experimental: as §3, §2, §4

K562 (leukaemia cells) = assay: as above; conditions: 4th day, Sorafenib 5 μM, Cisplatin 5 μM, Etoposide 10 μM, IR 5Gy
Experimental: as §3, §2, §4

[9] = test system: U2OS (osteosarcoma cells); assay: as above; conditions: 4th day, Sorafenib 5 μM, Cisplatin 5 μM, Etoposide 10 μM, IR 5Gy
Experimental: as §3, §2, §4

[10] = test system: NTera2 (testicular embryonic carcinoma); assay: as above; format: cell-based; conditions: 4th day, Sorafenib 5 μM, Cisplatin 5 μM, Etoposide 10 μM, IR 5Gy
Experimental: as §3, §2, §4

U937 cells [11] = assay: Cytokine antibody array and ELISA of secreted cytokines; format: cell-based; conditions: 10 μM cytarabine, conditioned media
Experimental: Condition media from equal numbers of cultured U937 cells were collected at 72 h post indicated treatments and assessed by the Human Cytokine Array C1 according to the manufacturer's instruction (AAH-CYT-1, RayBiotech). Data were acquired using the ImageJ software and normalized to the positive controls. When indicated, the amounts of secreted cytokines and chemokines in the conditional mediums were determined by the enzyme-linked immunosorbent assay (ELISA) test kit following the manufacturer's instructions (R&D Systems). The absorbances of triplicated samples were read by SpectraMax Paradigm Plate Reader (Molecular Devices).

endogenous TIFA = molecular target: T1, endogenous TIFA (Homo sapiens, UniProt Q96CG3); assay: Immunoprecipitation of lysates from transduced U937 cells; format: binding; conditions: U937 cells stably expressing Myc-tagged fragment; anti-Myc immunobeads, western blot
T1 construct: endogenous in cells; host or cells: U937 cells (retrovirally transduced with Myc-tagged TIFA fragments)
T1 sequence (Q96CG3 1-184): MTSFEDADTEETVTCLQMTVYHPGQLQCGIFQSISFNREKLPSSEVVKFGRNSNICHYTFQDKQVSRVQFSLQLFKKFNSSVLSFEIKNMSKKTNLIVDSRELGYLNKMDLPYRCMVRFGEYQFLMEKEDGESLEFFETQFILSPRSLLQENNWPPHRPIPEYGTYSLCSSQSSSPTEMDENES

## 5′-UCAGGACAAACAGGUUUCCCGAGUU-3′ [TIFA siRNA]
NF-κB; overexpression of Aurora A (293T) or TNF-α treatment (U937), silencing of TIFA
  elevation of activated NF-κB, phosphorylated IκK and IκB, and NF-κB-driven luciferase activity: negated
[1]
  cell proliferation: inhibited
[2]
  growth of AML cell lines: attenuates the growth
AML PBMCs; WST-1 time course
  growth of AML PBMCs: growth retardation
AML PBMCs; chemo drug treatments, WST-1
  chemosensitivities of patient-derived PBMCs: consistently promoted chemosensitivities

## CC1(C)CCC(c2ccc(Cl)cc2)=C(CN2CCN(c3ccc(C(=O)NS(=O)(=O)c4ccc(N[C@H](CCN5CCOCC5)CSc5ccccc5)c(S(=O)(=O)C(F)(F)F)c4)cc3)CC2)C1 [ABT-263]
U937 cells [3]
  cytotoxicity of cytarabine-treated U937 cells: enhanced the cytotoxicity

## COc1cc([C@@H]2c3cc4c(cc3[C@@H](O[C@@H]3O[C@@H]5CO[C@@H](C)O[C@H]5[C@H](O)[C@H]3O)[C@H]3COC(=O)[C@H]23)OCO4)cc(OC)c1O [Etoposide, etoposide]
J5 (liver cancer cells)
  fold change of cytotoxicity (cytotoxicity of TIFA silencing/cytotoxicity of non-silencing): 1.64 fold changes
[4]
  fold change of cytotoxicity (cytotoxicity of TIFA silencing/cytotoxicity of non-silencing): 1.29 fold changes
H446 (lung cancer cells)
  fold change of cytotoxicity (cytotoxicity of TIFA silencing/cytotoxicity of non-silencing): 1.27 fold changes
Jurkat (leukaemia cells)
  fold change of cytotoxicity (cytotoxicity of TIFA silencing/cytotoxicity of non-silencing): 1.79 fold changes
[5]
  fold change of cytotoxicity (cytotoxicity of TIFA silencing/cytotoxicity of non-silencing): 1.61 fold changes
[6]
  fold change of cytotoxicity (cytotoxicity of TIFA silencing/cytotoxicity of non-silencing): 1.30 fold changes
A549 (lung cancer cells)
  fold change of cytotoxicity (cytotoxicity of TIFA silencing/cytotoxicity of non-silencing): 1.77 fold changes
[7]
  fold change of cytotoxicity (cytotoxicity of TIFA silencing/cytotoxicity of non-silencing): 1.46 fold changes
[8]
  decrease in IC50 of the chemo drug under TIFA silencing: ca. 50%
THP-1 (leukaemia cells)
  fold change of cytotoxicity (cytotoxicity of TIFA silencing/cytotoxicity of non-silencing): 1.59 fold changes
K562 (leukaemia cells)
  fold change of cytotoxicity (cytotoxicity of TIFA silencing/cytotoxicity of non-silencing): 2.28 fold changes
[9]
  fold change of cytotoxicity (cytotoxicity of TIFA silencing/cytotoxicity of non-silencing): 1.48 fold changes
[10]
  fold change of cytotoxicity (cytotoxicity of TIFA silencing/cytotoxicity of non-silencing): 1.15 fold changes

## CNC(=O)c1cc(Oc2ccc(NC(=O)Nc3ccc(Cl)c(C(F)(F)F)c3)cc2)ccn1 [Sorafenib, sorafenib]
[6]
  fold change of cytotoxicity (cytotoxicity of TIFA silencing/cytotoxicity of non-silencing): 1.47 fold changes

## Cc1cc(Nc2cc(N3CCN(C)CC3)nc(Sc3ccc(NC(=O)C4CC4)cc3)n2)n[nH]1 [VX680]
[1]
  cell proliferation: inhibited

## CC(C)C[C@H](NC(=O)[C@H](Cc1ccccc1)NC(=O)c1cnccn1)B(O)O [bortezomib]
U937 cells [3]
  cytotoxicity of cytarabine-treated U937 cells: enhanced the cytotoxicity

## Nc1ccn([C@@H]2O[C@H](CO)[C@@H](O)[C@@H]2O)c(=O)n1 [cytarabine]
U937 cells [11]
  secretion of IL-6: suppressed
  secretion of TNF-α, CXCL-1, and IL-8: promoted
[8]
  decrease in IC50 of the chemo drug under TIFA silencing: ca. 50%

## CC(=O)[C@]1(O)Cc2c(O)c3c(c(O)c2[C@@H](O[C@H]2C[C@H](N)[C@H](O)[C@H](C)O2)C1)C(=O)c1ccccc1C3=O [idarubicin]
[8]
  decrease in IC50 of the chemo drug under TIFA silencing: ca. 50%

## etanercept
U937 cells [3]
  cytotoxicity of cytarabine-treated U937 cells: enhanced the cytotoxicity

B1: F2F3: dominant-negative TIFA fragment: dimerization-core (F2) plus TRAF6/TRAF2 interacting segment (F3), Myc-tagged, expressed by retroviral transduction (protein)
chain: VVKFGRNSNICHYTFQDKQVSRVQFSLQLFKKFNSSVLSFEIKNMSKKTNLIVDSRELGYLNKMDLPYRCMVRFGEYQFLMEKEDGESLEFFETQFILSPRSLLQENNWPPHRPIPEYGTYSLCSSQSSSPTEMDENES
modifications: left off: small tags and cut ends
NF-κB
  TNF-α-dependent NF-κB activation and elevations of NF-κB signaling factors: attenuated
Endogenous TIFA
  pull down of endogenous TIFA: able to pull down endogenous TIFA

B2: F1F2: dominant-negative TIFA fragment: Thr9 segment (F1) plus dimerization-core (F2), Myc-tagged, expressed by retroviral transduction (protein)
chain: MTSFEDADTEETVTCLQMTVYHPGQLQCGIFQSISFNREKLPSSEVVKFGRNSNICHYTFQDKQVSRVQFSLQLFKKFNSSVLSFEIKNMSKKTNLIVDSREL
modifications: left off: small tags and cut ends
notes: dominant-negative TIFA fragment: Thr9 segment (F1) plus dimerization-core (F2), Myc-tagged, expressed by retroviral transduction
NF-κB
  TNF-α-dependent NF-κB activation and elevations of NF-κB signaling factors: attenuated
Endogenous TIFA
  pull down of endogenous TIFA: able to pull down endogenous TIFA
